Like-named read-outs stand apart in the source and are kept apart here.
Assays:
Primary CLL cells = test: AnnexinV/PI assay on primary CLL cells; format: cell-based, human; conditions: for EC50: Homo sapiens, CLL cell, read-out: AnnexinV/PI assay EC50 Primary CLL; for selectivity for CLL cells compared to PBMCs: FIG. 3, sensitivity of CLL cells vs PBMCs
Method: (§1) PBMCs or CLL cells (5*10^6 cells/ml) were incubated for 24 h with different compounds at concentrations from 0.01 to 100 μM. Cell survival was normalized to DMSO control [vehicle]. See Example 1.
(§2) Primary CLL or peripheral blood mononuclear cells of healthy donors (5*10^6/ml) were incubated for 24 h with different compounds according to the invention and NO-ASA as a control. The compounds were added in different concentrations, in particular in concentrations from 0.01-100 μM. Cell survival was assessed by AnnexinV/PI assay (Kit commercially available, e.g. by Biotium Inc, USA; or Phoenix Flow Systems, US), the results were normalized to DMSO control [vehicle] and dose response curves were calculated using a non-linear regression model.

[1] = tested on: peripheral blood mononuclear cells (PBMCs) of healthy donors; test: AnnexinV/PI assay on PBMCs of healthy donors; format: cell-based; conditions: Homo sapiens, PBMC
Method: as §1, §2

[2] = tested on: SW480, MelJuso, HCC44, SH2 and COLO704 cell lines; format: cell-based; conditions: 24 h, 0.01-100 μM
Method: (§3) In the following experiment the possible therapeutic window for NO-ASA derivatives was investigated. […] The melanoma cell line MelJuso, the colon carcinoma cell line SW480, the small cell lung cancer cell line HCC44, the ovarian adenocarcinoma cell line COLO704 and the acute myeloid leukemia cell line SH2 were treated with concentrations of p-NO-ASA and B9, B12 and B13 in a range between 0.01 μM and 100 μM for 24 h, followed by addition of luminogenic CellTiter-Glo® reagent.

[3] = tested on: small cell lung cancer cell line HCC44; test: Annexin V/PI assay, HCC44; format: cell-based; conditions: Homo sapiens, HCC44, 24 h
[4] = tested on: acute myeloid leukemia cell line SH2; test: Annexin V/PI assay, SH2; format: cell-based; conditions: 24 h
JVM-3 = test: CellTiter-Glo ATP assay, JVM-3 cell line; format: cell-based, human; conditions: 24 h, 0.01-1000 μM
Method: (§4) Several cell lines (n=5) were treated with different concentrations of p-NO-ASA, B9, B12 and B13 ranging between 0.01 μM and 1000 μM for 24 hours followed by addition of luminogenic CellTiter-Glo®-reagent. […] For each cell line the order of used compound in the bar chart is from left to right as following: p-NO-ASA, B9, B12, B13.
(§5) Treatment success in CLL may depend on cytogenetic and molecular parameters as for instance del13q or TP53 gene disruption. Therefore, the NO-ASA derivatives were examined on (chronic) B cell lymphoma cell lines with different geno- and phenotypes (JVM3, EHEB, U2932, MEC-1, GRANTA-519). The cells were treated with concentrations between 0.01 and 1000 μM for 24 h followed by the addition of luminogenic CellTiter-Glo® reagent.

[5] = tested on: melanoma cell line MelJuso; test: Annexin V/PI assay, MelJuso; format: cell-based; conditions: Homo sapiens, MEL-JUSO, 24 h
[6] = tested on: melanoma cell line MelJuso; test: Viability assay (ATP content, CellTiter-Glo), MelJuso; format: cell-based; conditions: Homo sapiens, MEL-JUSO, 24 h
Method: as §3
(§6) Table accompanying Example 5. Overview of the EC50 values of cell survival analyzed by ATP content and Annexin V/PI assay. n.t.; not tested

EHEB = test: CellTiter-Glo ATP assay, EHEB cell line; format: cell-based; conditions: 24 h, 0.01-1000 μM
Method: as §4, §5

U2932 = test: CellTiter-Glo ATP assay, U2932 cell line; format: cell-based; conditions: 24 h, 0.01-1000 μM
Method: as §4, §5

MEC-1 = test: CellTiter-Glo ATP assay, MEC-1 cell line; format: cell-based; conditions: Homo sapiens, MEC1; 24 h, CellTiter-Glo
Method: as §4, §5

[7] = tested on: colon carcinoma cell line SW480; test: cells; format: cell-based; conditions: Homo sapiens, SW480, 24 h, read-out: Viability assay EC50, SW480
Method: The cell lines (n=5) were treated with different concentrations of p-NO-ASA, B9, B12 and B13 ranging between 0.01 μM and 100 μM for 24 hours followed by addition of luminogenic CellTiter-Glo®-reagent (see Example 5).
as §3, §6

[8] = tested on: CLL cells without a TP53 mutation; test: FACS analysis of treated CLL cells without TP53 mutation; format: cell-based, human; conditions: 24 h, 0.01-100 μM, FIG. 6
Method: (§7) Isolated, primary CLL cells were treated for 24 h with the EC50 of the different compounds and the ATP-content was measured by flow cytometry. For each used compound the order of mean EC50 concentrations in the bar chart is from left to right as following: EC50 CLL cells TP53 unmut (unmutated=without mutation), EC50 CLL cells TP53 mut (mutated=with mutation).
(§8) Further, the derivatives B9, B12 and B13 were tested in comparison to para-NO-ASA on CLL cells which harbour a TP53 mutation. The patient subgroup with a TP53 disruption is characterized by a considerable dismal prognosis. CLL cells of patients with and without the TP53 mutation were treated with five different concentrations (0.01, 0.1, 1, 10, 100 μM) of para-NO-ASA, B9, B12 and B13 for 24 h.

[9] = tested on: small cell lung cancer cell line HCC44; test: Viability assay (ATP content, CellTiter-Glo), HCC44; format: cell-based
Method: as §3, §6

[10] = tested on: phosphorylated NFkappaBp65 protein; test: Western blot of NFkappaB phosphorylation status in CLL cells; format: cell-based, human; conditions: 3 h; for reduction of NFkappaB activity (phosphorylated NFkappaBp65): CLL cells, 0.1, 1, 10 μM; for concentration inducing the reduction of NFkappaB p65 protein: CLL cells
Method: CLL cells were treated with B1, B9, B12 and B13 (0.1 μM, 1 μM, 10 μM) for 3 h. Untreated and DMSO (1%) treated cells served as control. GAPDH=loading control.
The BCR signalling pathway plays an important pathogenic role in CLL and lymphomas leading often to a constitutive active NFkappaB (in this state NFkappaB is phosphorylated). Therefore the influence of the derivatives on the phosphorylation status of NFkappaB was analyzed by Western Blot. CLL cells were treated with 0.1 μM, 1 μM or 10 μM of each derivate, respectively, for 3 h. CLL cells were treated with B1, B9, B12 and B13 (0.1 μM, 1 μM, 10 μM) for 3 h. Untreated and DMSO (1%) treated cells served as control. GAPDH=loading control.

[11] = tested on: acute myeloid leukemia cell line SH2; test: Viability assay (ATP content, CellTiter-Glo), SH2; format: cell-based; conditions: 24 h
Method: as §3, §6

TP53-mutated CLL cells = test: FACS analysis of treated CLL cells with TP53 mutation; format: cell-based, human; conditions: 24 h, 0.01-100 μM, FIG. 6
Method: as §7, §8

[12] = tested on: ovarian adenocarcinoma cell line COLO704; test: Viability assay (ATP content, CellTiter-Glo), COLO704; format: cell-based; conditions: COLO 704, 24 h
Method: as §3, §6

[13] = tested on: ovarian adenocarcinoma cell line COLO704; test: Annexin V/PI assay, COLO704; format: cell-based; conditions: COLO 704, 24 h
[14] = tested on: several cancer cell lines; test: Apoptosis (Annexin V/PI) assay, panel of cancer cell lines; format: cell-based; conditions: range over the cancer cell lines, 24 h; read-out: concentrations inducing apoptosis in different diseases (apoptosis array)
GRANTA-519 = test: CellTiter-Glo ATP assay, GRANTA-519 cell line; format: cell-based; conditions: Homo sapiens, Granta-519; 24 h, CellTiter-Glo
Method: as §4, §5

[15] = 24 h incubation, 0.01-100 μM, 5*10^6 cells/ml, normalized to DMSO control
[16] = 24 h incubation, value extrapolated beyond tested 0.01-100 μM, read-out: AnnexinV/PI assay EC50 PBMCs (* = extrapolated)
[17] = 24 h incubation, 0.01-100 μM, 5*10^6 cells/ml, normalized to DMSO control, read-out: AnnexinV/PI assay EC50 PBMCs

C#Cc1cc(CO[N+](=O)[O-])ccc1OC(=O)c1ccccc1 [B20, 2-ethynyl-4-((nitrooxy)methyl)phenyl benzoate]
EC50 (Primary CLL cells; [15]): 21.8 µM | EC50 [1, 16]: 308 µM

COc1ccccc1C(=O)Oc1ccc(CO[N+](=O)[O-])cc1 [B18, 4-((nitrooxy)methyl)phenyl 2-methoxybenzoate]
EC50 (Primary CLL cells; [15]): 26 µM

O=C(Oc1ccc(CCl)cc1)c1ccccc1 [B12, 4-(chloromethyl)phenyl benzoate]
ATP content in SW480, MelJuso, HCC44, SH2 and COLO704 cell lines [2]: reduced ATP content | EC50 [3]: 7.35 µM | selectivity for CLL cells compared to PBMCs (Primary CLL cells; 24 h): selective for CLL cells | EC50 (Primary CLL cells; [15]): 1.33 µM | EC50 [4]: 1.68 µM | ATP content in JVM-3 (JVM-3): reduced ATP content | EC50 [5]: 4.79 µM | EC50 [6]: 0.54 µM | ATP content in EHEB (EHEB): reduced ATP content | ATP content in U2932 (U2932): reduced ATP content | EC50 [1, 17]: 35 µM | EC50 (MEC-1): 3.24 µM | EC50 [7]: 130 µM | effect on CLL cells without a TP53 mutation [8]: great effect | EC50 ([9]; 24 h): 1.03 µM | EC50 ([9]; Homo sapiens, HCC44, 24 h): 1.05 µM | reduction of NFkappaB activity (phosphorylated NFkappaBp65) [10]: concentration dependent reduction | concentration inducing the reduction of NFkappaB p65 protein [10]: 10 µM | EC50 [11]: 0.01 µM | effect on TP53-mutated CLL cells in comparison to para-NO-ASA (B1) (TP53-mutated CLL cells): more effective | EC50 [12]: 2.77 µM | EC50 [13]: 1.8 µM | EC50 [14]: 1 to 5 µM | EC50 (GRANTA-519): 0.68 µM

O=C(Oc1ccc(CO[N+](=O)[O-])cc1)c1cccc2ccccc12 [B13, 4-((nitrooxy)methyl)phenyl 1-naphthoate]
ATP content in SW480, MelJuso, HCC44, SH2 and COLO704 cell lines [2]: reduced ATP content | EC50 [3]: 37.9 µM | selectivity for CLL cells compared to PBMCs (Primary CLL cells; 24 h): selective for CLL cells | EC50 (Primary CLL cells; [15]): 1.04 µM | EC50 [4]: 6.95 µM | ATP content in JVM-3 (JVM-3): reduced ATP content | EC50 [5]: 57.5 µM | EC50 [6]: 4.79 µM | ATP content in EHEB (EHEB): reduced ATP content | ATP content in U2932 (U2932): reduced ATP content | EC50 [1, 17]: 52.7 µM | EC50 (MEC-1): 24.1 µM | EC50 [7]: 190 µM | EC50 ([9]; Homo sapiens, HCC44, 24 h): 1.68 µM | reduction of NFkappaB activity (phosphorylated NFkappaBp65) [10]: concentration dependent reduction | concentration inducing the reduction of NFkappaB p65 protein [10]: 10 µM | EC50 [11]: 0.64 µM | effect on TP53-mutated CLL cells in comparison to para-NO-ASA (B1) (TP53-mutated CLL cells): more effective | EC50 [12]: 7.86 µM | EC50 [13]: 53.7 µM | EC50 [14]: 7 to 57 µM | EC50 (GRANTA-519): 19.7 µM

O=C(Oc1ccc(CO[N+](=O)[O-])cc1)C1CCCCC1 [B14, 4-((nitrooxy)methyl)phenyl cyclohexane carboxylate]
EC50 (Primary CLL cells; [15]): 3.31 µM | EC50 [1, 17]: 20.2 µM

COc1cc(CO[N+](=O)[O-])ccc1OC(=O)c1ccccc1 [B11, 2-methoxy-4-((nitrooxy)methyl)phenyl benzoate]
EC50 (Primary CLL cells; 24 h): 14.7 µM | EC50 ([1]; 24 h, read-out: AnnexinV/PI assay EC50 PBMCs): 24.4 µM

CC(=O)Oc1ccc(C)cc1C(=O)Oc1ccc(CO[N+](=O)[O-])cc1 [B2, 4-((nitrooxy)methyl)phenyl 2-actetoxy-5-methylbenzoate]
EC50 (Primary CLL cells; [15]): 4.75 µM | EC50 [1, 17]: 48.5 µM

CC(C)(C)[Si](C)(C)OCc1ccc(OC(=O)c2ccccc2)cc1 [B7, 4-(((tert-butyldimethylsilyl)oxy)methyl)phenyl benzoate]
EC50 (Primary CLL cells; [15]): 52.8 µM | EC50 [1, 16]: 203 µM

O=C(Oc1ccc(CO)cc1)c1cc(C(F)(F)F)ccc1Cl [B5, 4-(hydroxymethyl)phenyl 2-chloro-5-(trifluoromethyl)benzoate]
EC50 (Primary CLL cells; [15]): 37.2 µM | EC50 [1, 16]: 108 µM

CC(=O)Oc1cc(C)ccc1C(=O)Oc1ccc(CO[N+](=O)[O-])cc1 [B3, 4-((nitrooxy)methyl)phenyl 2-actetoxy-4-methylbenzoate]
EC50 (Primary CLL cells; [15]): 4 µM | EC50 [1, 17]: 55.1 µM

O=C(Oc1ccc(CO[N+](=O)[O-])cc1)c1cc(C(F)(F)F)ccc1Cl [B6, 4-((nitrooxy)methyl)phenyl 2-chloro-5-(trifluoromethyl)benzoate]
EC50 (Primary CLL cells; [15]): 4.42 µM | EC50 [1, 17]: 73.9 µM

O=C(Oc1ccc(CO)cc1)c1ccccc1 [B8, 4-(hydroxymethyl)phenyl benzoate]
EC50 (Primary CLL cells; [15]): 57.3 µM

O=COCc1ccc(OC(=O)c2ccccc2)cc1 [B10, 4-((formyloxy)methyl)phenyl benzoate]
EC50 (Primary CLL cells; [15]): 79.4 µM | EC50 [1, 16]: 859 µM

Nc1cccc2c(S(=O)(=O)Oc3ccc(CO[N+](=O)[O-])cc3)cccc12 [B16, 4-((nitrooxy)methyl)phenyl 5-aminonaphthalene-1-sulfonate]
EC50 (Primary CLL cells; [15]): 82.4 µM | EC50 [1, 16]: 370 µM

Reference: patent US10793509B2, “Compounds useful in the treatment of neoplastic diseases” (UNIVERSITÄT ZU KÖLN, priority 2013, dated 2020)
